Source: article PMC7162861, “Synthesis, cytotoxicity, pharmacokinetic profile, binding with DNA and BSA of new imidazo[1,2-a]pyrazine-benzo[d]imidazol-5-yl hybrids” (Scientific Reports, 2020)

Columns and labels:
[1] = Experimental log P, shake-flask method; assay type: physicochemical; conditions: n-octanol/phosphate buffer pH 7.4, read-out: Exp. Log P
Experimental: Partition coefficients or experimental log P values of all synthesized compounds (9–23, 30 and 31) were calculated using the shake-flask method. Log P values were determined using n-octanol and phosphate buffer (pH = 7.4) at 10:1 ratio of volumes. Stock solutions (10^−3 M) of compounds were prepared in DMSO. Glass vials were used to make final solutions i.e. stock solution (250 µL) and phosphate buffer (125 µL). To record the absorbance, wavelength was selected based on λmax of the respective compound. Initial absorbance (Ai) for every compound was noted consuming the stock solution in the buffer phase. Now added n-octanol to every vial and shaken well using a mechanical shaker for 50 minutes. To get separation of both phases, glass vials were centrifuged for 35 min. at 2500 rpm. Then, the layer of octanol was separated from glass vial. The final absorbance (Af) of each compound was recorded by using the buffer layer. The values of P for compounds were determined by the following equation (Eq. 8):8 P=Ai−Af/Af×Vw/Vo

EtBr-CT-DNA complex = tested on: EtBr-CT-DNA complex; design: method as in printed; conditions: used in Eq. 4; ref not given; cited from earlier work

Row | Structure (SMILES) | logP [1] | melting point [°C] | known binding constant KEtBr (EtBr-CT-DNA complex) [M⁻¹]
1 | CC[n+]1c(-c2ccccc2)c2cc(N)ccc2c2ccc(N)cc21 [ethidium bromide] |  |  | 1e+07
2 | CC(=O)c1ccc(-c2cn3ccnc3c(-c3ccc4c(c3)ncn4C3CCCCC3)n2)cc1 [Compound 17, 1-(4-(8-(1-cyclohexyl-1H-benzo[d]imidazol-5-yl)imidazo[1,2-a]pyrazin-6-yl)phenyl)ethan-1-one] | 1.41 | 200 to 203 | 

More lines, main results first:

Row | logP [1] | melting point [°C] | Structure (SMILES) | known binding constant KEtBr (EtBr-CT-DNA complex) [M⁻¹]
3 | 1.74 | 182 to 185 | CCc1ccc(-c2cn3ccnc3c(-c3ccc4c(c3)ncn4C3CCCCC3)n2)cc1 [Compound 16, 8-(1-cyclohexyl-1H-benzo[d]imidazol-5-yl)-6-(4-ethylphenyl)imidazo[1,2-a]pyrazine] | 
4 | 2.05 | 195 to 198 | Brc1ccc(-c2cn3ccnc3c(-c3ccc4c(c3)ncn4C3CCCCC3)n2)cc1 [Compound 19, 6-(4-bromophenyl)-8-(1-cyclohexyl-1H-benzo[d]imidazol-5-yl)imidazo[1,2-a]pyrazine] | 
5 | 1.88 | 195 to 198 | COc1ccccc1-c1cn2ccnc2c(-c2ccc3c(c2)ncn3C2CCCCC2)n1 [Compound 20, 8-(1-cyclohexyl-1H-benzo[d]imidazol-5-yl)-6-(2-methoxyphenyl)imidazo[1,2-a]pyrazine] | 
6 | 1.77 | 190 to 193 | Fc1ccccc1-c1cn2ccnc2c(-c2ccc3c(c2)ncn3C2CCCCC2)n1 [Compound 21, 8-(1-cyclohexyl-1H-benzo[d]imidazol-5-yl)-6-(2-fluorophenyl)imidazo[1,2-a]pyrazine] | 
